Test results as given in US8192962B2, “Processes for detecting toxic substances” (Daikin Industries, Ltd., priority 2001, dated 2012).

Tested on: Unknown protein yeast genes
Test: DNA chip mRNA expression in yeast, unknown protein yeast genes (Table 1)
Assay type: cell-based, Saccharomyces cerevisiae S288C
Summary of the method: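 Measured as treated-to-untreated fluorescence ratio on a full-genome yeast DNA chip. Cells (S288C, YPD, 25° C.) were exposed in log phase for two hours to one chemical, dosed to curb growth without killing.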

Cl[C@H]1[C@H](Cl)[C@@H](Cl)[C@@H](Cl)[C@H](Cl)[C@H]1Cl [(7), γ-hexachlorocyclohexane]
The level of expressed mRNA in the presence of chemical substance/The level of expressed mRNA in the absence of chemical substance (yeast gene YAL053W, incubated two hours with chemical substance): 0.7 | The level of expressed mRNA in the presence of chemical substance/The level of expressed mRNA in the absence of chemical substance (yeast gene YBL048W): 1.9 | The level of expressed mRNA in the presence of chemical substance/The level of expressed mRNA in the absence of chemical substance (yeast gene YBL107C): 2.1 | The level of expressed mRNA in the presence of chemical substance/The level of expressed mRNA in the absence of chemical substance (yeast gene YDL072C, incubated two hours with chemical substance): 1.8 | The level of expressed mRNA in the presence of chemical substance/The level of expressed mRNA in the absence of chemical substance (yeast gene YDL204W, incubated two hours with chemical substance): 3.2 | The level of expressed mRNA in the presence of chemical substance/The level of expressed mRNA in the absence of chemical substance (yeast gene YDL222C, incubated two hours with chemical substance): 1.0 | The level of expressed mRNA in the presence of chemical substance/The level of expressed mRNA in the absence of chemical substance (yeast gene YDR330W, incubated two hours with chemical substance): 1.3 | The level of expressed mRNA in the presence of chemical substance/The level of expressed mRNA in the absence of chemical substance (yeast gene YDR411C, incubated two hours with chemical substance): 2.0 | The level of expressed mRNA in the presence of chemical substance/The level of expressed mRNA in the absence of chemical substance (yeast gene YDR511W, incubated two hours with chemical substance): 1.5 | The level of expressed mRNA in the presence of chemical substance/The level of expressed mRNA in the absence of chemical substance (yeast gene YDR545W, incubated two hours with chemical substance): 1.2 | The level of expressed mRNA in the presence of chemical substance/The level of expressed mRNA in the absence of chemical substance (yeast gene YEL001C, incubated two hours with chemical substance): 1.1 | The level of expressed mRNA in the presence of chemical substance/The level of expressed mRNA in the absence of chemical substance (yeast gene YER004W, incubated two hours with chemical substance): 1.4 | The level of expressed mRNA in the presence of chemical substance/The level of expressed mRNA in the absence of chemical substance (yeast gene YER035W, incubated two hours with chemical substance): 1.9 | The level of expressed mRNA in the presence of chemical substance/The level of expressed mRNA in the absence of chemical substance (yeast gene YER079W, incubated two hours with chemical substance): 1.9 | The level of expressed mRNA in the presence of chemical substance/The level of expressed mRNA in the absence of chemical substance (yeast gene YER106W, incubated two hours with chemical substance): 1.0 | The level of expressed mRNA in the presence of chemical substance/The level of expressed mRNA in the absence of chemical substance (yeast gene YER158C, incubated two hours with chemical substance): 1.2 | The level of expressed mRNA in the presence of chemical substance/The level of expressed mRNA in the absence of chemical substance (yeast gene YER163C, incubated two hours with chemical substance): 1.5 | The level of expressed mRNA in the presence of chemical substance/The level of expressed mRNA in the absence of chemical substance (yeast gene YER175C, incubated two hours with chemical substance): 2.3 | The level of expressed mRNA in the presence of chemical substance/The level of expressed mRNA in the absence of chemical substance (yeast gene YFL006W, incubated two hours with chemical substance): 1.0 | The level of expressed mRNA in the presence of chemical substance/The level of expressed mRNA in the absence of chemical substance (yeast gene YFL010C, incubated two hours with chemical substance): 1.5 | The level of expressed mRNA in the presence of chemical substance/The level of expressed mRNA in the absence of chemical substance (yeast gene YFL024C): 3.3 | The level of expressed mRNA in the presence of chemical substance/The level of expressed mRNA in the absence of chemical substance (yeast gene YFL032W, incubated two hours with chemical substance): 1.1 | The level of expressed mRNA in the presence of chemical substance/The level of expressed mRNA in the absence of chemical substance (yeast gene YGL037C, incubated two hours with chemical substance): 2.9 | The level of expressed mRNA in the presence of chemical substance/The level of expressed mRNA in the absence of chemical substance (yeast gene YGL047W, incubated two hours with chemical substance): 1.7 | The level of expressed mRNA in the presence of chemical substance/The level of expressed mRNA in the absence of chemical substance (yeast gene YGL053W, incubated two hours with chemical substance): 3.7 | The level of expressed mRNA in the presence of chemical substance/The level of expressed mRNA in the absence of chemical substance (yeast gene YGL121C): 4.7 | The level of expressed mRNA in the presence of chemical substance/The level of expressed mRNA in the absence of chemical substance (yeast gene YGL199C, incubated two hours with chemical substance): 1.3 | The level of expressed mRNA in the presence of chemical substance/The level of expressed mRNA in the absence of chemical substance (yeast gene YGR101W, incubated two hours with chemical substance): 1.5 | The level of expressed mRNA in the presence of chemical substance/The level of expressed mRNA in the absence of chemical substance (yeast gene YGR110W): 1.7 | The level of expressed mRNA in the presence of chemical substance/The level of expressed mRNA in the absence of chemical substance (yeast gene YGR130C, incubated two hours with chemical substance): 1.3 | The level of expressed mRNA in the presence of chemical substance/The level of expressed mRNA in the absence of chemical substance (yeast gene YGR154C, incubated two hours with chemical substance): 2.0 | The level of expressed mRNA in the presence of chemical substance/The level of expressed mRNA in the absence of chemical substance (yeast gene YGR221C, incubated two hours with chemical substance): 1.2 | The level of expressed mRNA in the presence of chemical substance/The level of expressed mRNA in the absence of chemical substance (yeast gene YHR138C, incubated two hours with chemical substance): 3.0 | The level of expressed mRNA in the presence of chemical substance/The level of expressed mRNA in the absence of chemical substance (yeast gene YHR199C, incubated two hours with chemical substance): 1.1 | The level of expressed mRNA in the presence of chemical substance/The level of expressed mRNA in the absence of chemical substance (yeast gene YIL023C, incubated two hours with chemical substance): 1.2 | The level of expressed mRNA in the presence of chemical substance/The level of expressed mRNA in the absence of chemical substance (yeast gene YIL041W, incubated two hours with chemical substance): 0.8 | The level of expressed mRNA in the presence of chemical substance/The level of expressed mRNA in the absence of chemical substance (yeast gene YIL087C, incubated two hours with chemical substance): 1.8 | The level of expressed mRNA in the presence of chemical substance/The level of expressed mRNA in the absence of chemical substance (yeast gene YJL057C, incubated two hours with chemical substance): 2.7 | The level of expressed mRNA in the presence of chemical substance/The level of expressed mRNA in the absence of chemical substance (yeast gene YJL066C, incubated two hours with chemical substance): 1.6 | The level of expressed mRNA in the presence of chemical substance/The level of expressed mRNA in the absence of chemical substance (yeast gene YJL082W, incubated two hours with chemical substance): 0.4 | The level of expressed mRNA in the presence of chemical substance/The level of expressed mRNA in the absence of chemical substance (yeast gene YJL151C, incubated two hours with chemical substance): 1.4 | The level of expressed mRNA in the presence of chemical substance/The level of expressed mRNA in the absence of chemical substance (yeast gene YJL152W, incubated two hours with chemical substance): 1.2 | The level of expressed mRNA in the presence of chemical substance/The level of expressed mRNA in the absence of chemical substance (yeast gene YJL161W, incubated two hours with chemical substance): 3.6 | The level of expressed mRNA in the presence of chemical substance/The level of expressed mRNA in the absence of chemical substance (yeast gene YJL171C, incubated two hours with chemical substance): 1.4 | The level of expressed mRNA in the presence of chemical substance/The level of expressed mRNA in the absence of chemical substance (yeast gene YJR008W, incubated two hours with chemical substance): 2.9 | The level of expressed mRNA in the presence of chemical substance/The level of expressed mRNA in the absence of chemical substance (yeast gene YJR054W, incubated two hours with chemical substance): 0.9 | The level of expressed mRNA in the presence of chemical substance/The level of expressed mRNA in the absence of chemical substance (yeast gene YKL071W): 3.7 | The level of expressed mRNA in the presence of chemical substance/The level of expressed mRNA in the absence of chemical substance (yeast gene YKL086W, incubated two hours with chemical substance): 0.7 | The level of expressed mRNA in the presence of chemical substance/The level of expressed mRNA in the absence of chemical substance (yeast gene YKL151C, incubated two hours with chemical substance): 5.6 | The level of expressed mRNA in the presence of chemical substance/The level of expressed mRNA in the absence of chemical substance (yeast gene YKL153W, incubated two hours with chemical substance): 1.1
